Here are results for one molecule from patent US20070031520A1, “Method of using ajoene as alcohol dehydrogenase inhibitor, composition for removing hangover comprising ajoene and method of preparing the same” (priority 2005, published 2007).

This test concerns human ADH. As to the kind of experiment: cloned human ADH assay (NADH absorbance at 340 nm). Type of test: biochemical. Conditions: for ADH inhibitory activity (%): 0.1 M glycine buffer pH 10, 2.4 mM NAD+, 33 mM ethanol. Here is the method: ADH inhibitory activity of ajoene obtained in Example 1 was examined by means of a cloned human ADH assay wherein human ADH is treated with ajoene at different concentrations, and the results are shown in Table 1 below. Here, the ADH assay employed 0.1 M glycine buffer (pH 10) as a reaction buffer and 2.4 mM NAD^+ and 33 mM ethanol in a subtrate. ADH inhibitory activity was determined by measuring the absorbance of NADH at 340 nm using a microplate reader.

For `C=CCSSC=CC[S+]([O-])CC=C` (stereo not shown) [ajoene, 4,5,9-trithiadodeca-1,6,11-triene-9-oxide], the “ADH inhibitory activity (%)” value (ajoene 0.1 μg/ml) is listed as 0%; the “ADH inhibitory activity (%)” value (ajoene 0.9 μg/ml) stood at 50%; the “ADH inhibitory activity (%)” value (ajoene 1 μg/ml) worked out at 60%; the “ADH inhibitory activity (%)” value (ajoene 10 μg/ml) amounted to 85%; the “ADH inhibitory activity (%)” value (ajoene 50 μg/ml) is listed as 100%; the “ADH inhibitory activity (%)” value (ajoene 100 μg/ml) was found to be 100%. Also, the “inhibitory concentration of 50% (IC50) on ADH activity” value (cloned human ADH, from Table 1) turned out to be 0.9 µg/mL.
